molecular target: GABAB-R; experiment: not given; settings: read-out: Ki value; cited from earlier work

Row | Compound | Ki [nM]
1 | CGP54626 | 7.08

test system: human GABAB-R (ChEMBL ID: CHEMBL2111463); experiment: not given; settings: cited from earlier work

Row | Compound | Activity
2 | NCCC(c1ccccc1)[PH](=O)O (stereo not shown) [CHEMBL111127, NCCC(c1ccccc1)[PH](=O)O] | Agonist
3 | NCC(CC(=O)O)c1ccc(Cl)s1 (stereo not shown) [CHEMBL87482, NCC(CC(=O)O)c1ccc(Cl)s1] | Agonist
4 | NCC(C[PH](=O)O)c1ccc(Cl)cc1 (stereo not shown) [CHEMBL430501, NCC(C[PH](=O)O)c1ccc(Cl)cc1] | Agonist
5 | NCC(C[PH](=O)O)c1ccccc1 (stereo not shown) [CHEMBL109752, NCC(C[PH](=O)O)c1ccccc1] | Agonist
6 | NCC(C[PH](=O)O)c1ccc(F)cc1 (stereo not shown) [CHEMBL111378, NCC(C[PH](=O)O)c1ccc(F)cc1] | Agonist
7 | CCOC(OCC)P(=O)(O)CCCN [CHEMBL40157, NCCCP(=O)(C(OCC)OCC)O] | Antagonist
8 | NCC(O)(CS(=O)(=O)O)c1ccc(Cl)cc1 (stereo not shown) [CHEMBL1256573, NCC(c1ccc(cc1)Cl)(CS(=O)(=O)O)O] | Antagonist
9 | CC(C)(CO)Cc1cc(C(C)(C)C)c(O)c(C(C)(C)C)c1 [CHEMBL1256697, CC(C)(CO)Cc1cc(C(C)(C)C)c(O)c(C(C)(C)C)c1] | PAM
10 | NCC(O)C[PH](=O)O (stereo not shown) [CHEMBL113453, NCC(O)C[PH](=O)O] | Agonist
11 | NCCC(c1ccc(Cl)cc1)[PH](=O)O (stereo not shown) [CHEMBL114020, NCCC(c1ccc(Cl)cc1)[PH](=O)O] | Agonist
12 | CP(=O)(O)CC(O)CN (stereo not shown) [CHEMBL113348, CP(=O)(CC(CN)O)O] | Agonist
13 | CC(NCC(O)CP(=O)(O)Cc1ccccc1)c1ccc(Cl)c(Cl)c1 (stereo not shown) [CHEMBL455185, OC(CP(=O)(Cc1ccccc1)O)CNC(c1ccc(c(c1)Cl)Cl)C] | Antagonist
14 | NC(CC[PH](=O)O)c1ccc(Cl)cc1 (stereo not shown) [CHEMBL110306, NC(CC[PH](=O)O)c1ccc(Cl)cc1] | Agonist

test system: not listed separately; experiment: Solubility of stock in 100% DMSO; format: physicochemical; settings: stock reduced to 5 mM
Protocol: The 34 compounds for in vitro testing were purchased from MolPort (https://www.molport.com/). The test compounds were dissolved in 100% DMSO at a stock concentration of 10 mM and stored at −20 °C. […] Stock compounds were subsequently serially diluted in 100% DMSO and finally in a D-glucose solution (20 mM NaOH, 5 mM D-glucose) to obtain final concentrations for testing.

Row | Compound | solubility of 10 mM stock
15 | CSCCC(NC(=O)N1CC(O)=Nc2ccccc21)C(=O)NCc1ccc(Cl)cc1Cl (stereo not shown) [Compound 25, CSCCC(NC(=O)N1CC(O)=Nc2ccccc12)C(=O)NCc1ccc(Cl)cc1Cl] | solubility problems
16 | CN(Cc1ccc(Cl)c(Cl)c1)Cc1nc2ccsc2c(=O)[nH]1 [Compound 5, CN(Cc1ccc(Cl)c(Cl)c1)Cc1nc2ccsc2c(=O)[nH]1] | solubility problems

Source: paper PMC12138688, “Identification of Orthosteric GABAB Receptor Ligands by Virtual Screening and In Vitro Validation” (ACS Omega, 2025)
